The results in this text go back to US12440479B2, “Prevention or treatment of chronic organ injury” (GEORG-AUGUST-UNIVERSITAET GOETTINGEN, STIFTUNG …, priority 2018, dated 2025).

Molecules are shown by their SMILES.

One test deals with ARNT. Nature of the test: ARNT mRNA expression levels in organs of treated mice (qRT-PCR). The format is in vivo. To be noted: FK506 0.2 mg/kg or GPI-1046 30 mg/kg orally per day; kidney, heart, brain, spinal cord, skin, liver, lung and intestine. As to the method:
Solutions were changed once a day and mice were sacrificed at indicated time points.
Mice were injected subcutaneously with 10 mg/kg body weight per day GPI-1046 (Santa Cruz Biotechnology, Dallas, USA) in DMSO once daily starting one day prior of surgery, control mice received equivalent volume of vehicle DMSO. For oral administration, GPI-1046 stock solution was diluted in glucose-water (5%) and orally applied on the basis of an average drinking volume of 3 mL and a body weight of 20 g per mouse. Three days after challenging with UUO, mice were treated orally with either vehicle buffer glucose (5%) or 30 mg/kg body weight per day GPI-1046, respectively.
For SYBR-based real-time PCR, cDNA synthesis was performed by using DNase I digestion (Invitrogen, Carlsbad, USA) and SuperScript II Reverse Transcriptase (Invitrogen, Carlsbad, USA) according to the manufacturer's protocol. 1 μL of reverse-transcribed cDNA was added to the reaction mixture containing the primer pair (200 nmol/L each) and diluted 2× Fast SYBR Green Master Mix (Applied Biosystems, Carlsbad, USA) in a final volume of 20 μL for each PCR reaction. The real-time PCR reactions were performed in a 96-well reaction plate using the StepOne Plus Real-Time System (Applied Biosystems, Carlsbad, USA) and were done in triplicates. […] The relative expression levels were calculated using the equation 2^−ddCt.

The test system of another test is functional parenchyma. In words: Streptozotocin (STZ) model of diabetic nephropathy. It is filed as in vivo. To be noted: STZ mice; FK506 0.2 mg/kg or GPI-1046 10 mg/kg subcutaneously per day. The method, then: Based on these observations, we next hypothesized that FK506 and small molecule FKBP12 inhibitor GPI-1046 could equally protect functional parenchyma in an experimental models of diabetic nephropathy (168). Diabetes was induced in 8 to 12 weeks old C57BL/6N mice by a single intraperitoneal injection of streptozotocin (STZ) at 200 mg/kg in 10 mmol/L citrate buffer (pH 4.5), citrate buffer alone was injected as control (168). FK506 (0.2 mg/kg body weight) and GPI-146 (10 mg/kg body weight) in DMSO once daily were applied by subcutaneous injections starting one day prior of STZ administration. At day 3 after STZ injection, diabetes was confirmed by urine dipstick. Mice were sacrificed 8 weeks after STZ injection for further analyses.

The subject of test [1] is intrarenal ARNT/ALK3 signaling. Nature of the test: UUO kidneys: ARNT/ALK3 expression and pSmad1/5/8 (qRT-PCR, immunoblotting, immunostaining). The format is in vivo, mice. To be noted: for canonical BMP signaling responses / intrarenal ARNT and ALK3 transcription: FK506 0.2 mg/kg or GPI-1046 30 mg/kg orally per day starting three days after UUO; for intrarenal NFAT signaling: picomolar FK506 or GPI-1046. As to the method: Eight to twelve weeks-old C57/6, yGTcre−;Yy1fl/fl and yGTcre+;Yy1fl/fl mice were anesthetized with isoflurane inhalation (2-3%), analgesia was performed by subcutaneous injection of 0.1 mg/kg body weight per day Buprenorphine. The ureter was separated from the surrounding tissues and two ligatures were placed about 5 mm apart in upper two-thirds of the left ureter to obtain reliable obstruction. Mice were sacrificed 3, 7 or 10 days after ureteral obstruction for further analyses, as described before (53, 153-155).
Paraffin-embedded specimens were deparaffinized in xylene and rehydrated in ethanol containing distilled water. Tissue sections were stained using polyclonal antibodies against ALK3 (sc-20736, Santa Cruz Biotechnology, Dallas, USA) and ARNT (3718S, Cell Signaling, Danvers, USA), peroxidase labeling was performed using Vectastain Universal Elite ABC Kit (Vector Laboratories, Burlingame, USA) according to the manufacturer's protocol. AEC Substrate-Chromogen (Dako, Glostrup, Denmark) was applied for peroxidase visualization according to the manufacturer's protocol. Nuclear counterstain was performed by using Mayer's Hematoxylin Solution (Sigma, St. Louis, USA).
For immunofluorescent staining, primary antibodies against ARNT (5537S, Cell Signaling, Danvers, USA), Hif1α (H6535, Sigma, St. Louis, USA), Hif2α (ab20654, Abcam Biochemicals, Cambridge, UK), phosphorylated Smad1/5/8 (pSmad1/5/8, sc-12353, Santa Cruz Biotechnology, Dallas, USA), CD45 (550539, BD Biosciences, Franklin Lakes, USA), Collagen-1 (ab34710, Abcam Biochemicals, Cambridge, UK), α-smooth muscle actin (aSMA, A5228, Sigma, St. Louis, USA), FKBP12 (ab2918, Abcam Biochemicals, Cambridge, UK) and YY1 (ab12132, Abcam Biochemicals, Cambridge, UK) were used, secondary antibodies were labeled with Alexa Fluor 488 or 568 (Life Technologies, Carlsbad, USA). Renal basement membranes were stained with antibodies against Collagen-4 (1340-30, SouthernBiotech, Birmingham, USA), cardiac cell membranes with antibodies against WGA (W11261, Life Technologies, Carlsbad, USA). Nuclear staining was performed using 4′,6-diamidino-2-phenylindole (DAPI, Vector Laboratories, Burlingame, USA). Relative areas positive for Collagen-1, aSMA, tubular nuclei positive for ARNT and pSmad1/5/8 were quantified in 10 high power fields per section at 400× magnification.
For SYBR-based real-time PCR, cDNA synthesis was performed by using DNase I digestion (Invitrogen, Carlsbad, USA) and SuperScript II Reverse Transcriptase (Invitrogen, Carlsbad, USA) according to the manufacturer's protocol. 1 μL of reverse-transcribed cDNA was added to the reaction mixture containing the primer pair (200 nmol/L each) and diluted 2× Fast SYBR Green Master Mix (Applied Biosystems, Carlsbad, USA) in a final volume of 20 μL for each PCR reaction. The real-time PCR reactions were performed in a 96-well reaction plate using the StepOne Plus Real-Time System (Applied Biosystems, Carlsbad, USA) and were done in triplicates. An initiation step at 95° C. for 20 seconds was followed by 40 cycles at 95° C. for 3 to seconds and 60° C. for 30 seconds, with one cycle of dissociation at 95° C. for 15 seconds, 60° C. for 60 seconds, and 95° C. for 15 seconds. The intercalation of SYBR Green dye and its fluorescent signal is directly proportional to the amount of amplified DNA and was transformed into the cycle threshold (Ct). For normalization, the Ct values of the housekeeping genes Gapdh and Actb were subtracted from the Ct values of the gene of interest to generate the dCt values. The relative expression levels were calculated using the equation 2^−ddCt.
Tissue and cells were homogenized in NP40 lysis buffer (Life technologies, Carlsbad, USA) supplemented with protease inhibitor cocktail (Roche, Basel, Switzerland).

The next test concerns UUO-challenged kidneys. Nature of the test: Unilateral ureteral obstruction (UUO): tubular injury and interstitial fibrosis (histology, immunostaining). The format is in vivo, mice.
Setting [2] is: UUO, FK506 0.2 mg/kg or GPI-1046 30 mg/kg orally per day starting three days after UUO.
The mark [3] stands for this setting: UUO, VMO 12.5 mg/kg intraperitoneally or FK506 0.2 mg/kg orally per day.
Setting [4] is: UUO, intrarenal ARNT induction depleted (Arnt-VMO).
Where [5] appears, read: UUO, FK506 0.02-5.0 mg/kg or CsA 10 mg/kg orally per day starting one day prior to UUO.

For the molecule `CCC(C)(C)C(=O)C(=O)N1CCC[C@H]1C(=O)OCCCc1cccnc1` [GPI-1046, 3-(3-pyridyl)-1-propyl-(2S)-1-(3,3-dimethyl-1,2-dioxopentyl)-2-pyrrolidinedine carboxylate], in the test with ARNT, the “transcriptional ARNT induction in organs” value is recorded as “transcriptional ARNT induction was present”. Also, the “protection of functional parenchyma from chronic injury” value in the test on functional parenchyma is “equally effective”. Besides, in test [1] (UUO, 10 mg/kg subcutaneously per day starting one day prior, compared to FK506), the “intrarenal ARNT and ALK3 transcription, BMP signaling responses” value was “equally induced”. In addition, in test [1] (UUO), the “canonical BMP signaling responses” value is “enhanced”; the “intrarenal ARNT and ALK3 transcription” value is on record as “equally effective”; the “intrarenal NFAT signaling” value is “not affecting”. Also, the “tubular injury and renal fibrogenesis” value in the test on UUO-challenged kidneys (UUO, 10 mg/kg subcutaneously per day starting one day prior) is “protected”. In the test with UUO-challenged kidneys (setting [2]), the “tubular injury and renal fibrogenesis” value is given as “attenuated”.

Consider `C=CC[C@@H]1/C=C(\C)C[C@H](C)C[C@H](OC)[C@H]2O[C@@](O)(C(=O)C(=O)N3CCCC[C@H]3C(=O)O[C@H](/C(C)=C/[C@@H]3CC[C@@H](O)[C@H](OC)C3)[C@H](C)[C@@H](O)CC1=O)[C@H](C)C[C@@H]2OC` [FK506, tacrolimus], for which the “transcriptional ARNT induction in organs” value with ARNT is recorded as “transcriptional ARNT induction was present”. The “protection of functional parenchyma from chronic injury” value in the test on functional parenchyma was “equally effective”. In addition, the “renal ARNT expression” value in test [1] (UUO mice, low-dose FK506 or CsA) is “significantly increased”. The “nuclear pSmad1/5/8” value in test [1] (UUO-challenged murine kidneys) was “nuclear pSmad1/5/8 accumulation”. In test [1] (UUO-challenged murine kidneys, treatment starting one day prior), the “expression of ALK3” value was “specifically induced”. In test [1] (UUO), the “canonical BMP signaling responses” value is “enhanced”; the “intrarenal ARNT and ALK3 transcription” value is “equally effective”; the “intrarenal NFAT signaling” value was “not affecting”. For the same molecule, in test [1] (setting [3]), the “intrarenal ARNT, ALK3 and nuclear pSmad1/5/8 immunostaining” value was “equally induced”. In test [1] (setting [4]), the “intrarenal ALK3-dependent BMP signaling responses” value is listed as “failed to induce”. The “effect of FK506 on ALK3 expression, nuclear pSmad1/5/8, tubular injury or interstitial fibrosis” value in the test on UUO-challenged kidneys (UUO mice that had also received Fkbp12-VMO or Yy1-VMO) was “no additive effects”. Further, in the test with UUO-challenged kidneys (UUO, mice with YY1 depleted in TECs (yGTcre+;Yy1fl/fl), FK506 0.2 mg/kg orally per day), the “effect of FK506 on BMP signaling, tubular injury, renal fibrogenesis, ALK3 transcription” value is given as “no additive effects”. In addition, the “tubular injury and renal fibrogenesis” value with UUO-challenged kidneys (setting [2]) is recorded as “attenuated”. Moreover, in the test on UUO-challenged kidneys (setting [5]), the chronic tubular injury entry was “reduced” and the interstitial fibrosis result is given as “reduced”. The “tubular injury and tubulointerstitial fibrosis” value in the test on UUO-challenged kidneys (setting [3]) was “attenuated”. The “protection of kidneys from tubular injury and progressive fibrotic disease” value with UUO-challenged kidneys (setting [4]) is listed as “failure of FK506 to protect”.
